Assay: In vitro elution kinetics of dual active agent release from coated stents in PBS at 37° C.
Type: physicochemical
Description: The in vitro elution kinetics of dual release was carried out in PBS and at 37° C. The stent was crimped on a stent delivery system and then expanded. After expansion, the physical aspects of the stent were noted prior to placing the stent inside a vial containing 3 milliliters (ml) of PBS. The vial was placed in a shaker at 37° C. and at certain time intervals; the whole solution (3 ml) was removed and replaced with fresh PBS. The amount of each active agent in each dual release system was determined by UV-Vis spectrophotometer using wavelengths of 250 nanometers (nm) for mycophenolic acid and 359 nm for sulfasalazine and solving simultaneous equations of active agent mixtures.

Row | SMILES | release kinetics of the active agent in the inner layer (stent system of FIG. 1 with TECOPLAST middle barrier layer (FIG. 3) versus without barrier (FIG. 2), PBS, 37° C.) | release rate of sulfasalazine (from blends of TECOPLAST and TECOPHILIC polyurethanes as outer layer (FIG. 4))
1 | COc1c(C)c2c(c(O)c1C/C=C(\C)CCC(=O)O)C(=O)OC2 [mycophenolic acid] | slowed down significantly | 
2 | O=C(O)c1cc(/N=N/c2ccc(S(=O)(=O)Nc3ccccn3)cc2)ccc1O [sulfasalazine] |  | increased as the percentage of TECOPHILIC polyurethane in the blend increased
